# Assay results taken from PMC6240685, “Strong Inhibitory Effect, Low Cytotoxicity and High Plasma Stability of Steroidal Inhibitors of N-Methyl-D-Aspartate Receptors With C-3 Amide Structural Motif” (Frontiers in Pharmacology, 2018).
# Structures can show the parent of a compound that is named as a salt. Where two headings read alike, the source gives them in different places.
# Tests used:
# [1] = Plasma stability, rat plasma; assay type: in vitro ADME
# HepG2 cells [2] = assay: ROS induction (CM-H2DCFDA); assay type: cell-based
# Description: (§1) (A) Hepatotoxicity provoked by compound 4 was assessed after 72 h incubation of HepG2 cells in low glucose medium (5 mM) in the presence of compound 4 (0.25–100 μM). (B) Mitochondrial toxicity was determined after 24 h incubation of HepG2 cells in either high glucose medium (25 mM) or galactose medium (10 mM) in the presence of compound 4 (2.5–150 μM). Cell viabilities were recorded in triplicates in three independent experiments and expressed as percentage of vehicle control ± SD and IC50 values were determined by GraphPad Prism software using following equation: Y = Bottom + (Top–Bottom)/(1 + 10ˆ((LogIC50-X)^∗HillSlope)), where IC50 is the concentration of compound 4 that inhibits cell viability half way between Bottom and Top plateaus, X is compound 4 concentration and HillSlope describes the steepness of the family of curves. […] (C) Concentration-dependent effect on ROS level. HepG2 cells were treated with compound 4 (0.25–100 μM) for 72 h, and then the intracellular level of total ROS in relative fluorescence units (RFU) was detected. The data are presented as the mean ± SD for at least three independent experiments and each experiment was carried out in triplicate. Final concentration of DMSO in samples was 1%. […] Single asterisks (^∗) indicate a significant difference (P < 0.05) compared to 1% DMSO control (one-way ANOVA with Dunnett’s post-test).
# The effect of neurosteroids on oxidative stress was determined using general oxidative stress indicator CM-H2DCFDA (Thermo Fisher Scientific, Waltham, MA, United States) according to the manufacturer’s instructions. Briefly HepG2 cells were seeded in a 96-well plate at a density of 13,500 cells per well. After 24 h, the tested neurosteroids were added to the culture media and incubated for 72 h. Subsequently, cells were washed with HBSS, treated with 100 μL of 1 μM CM-H2DCF-DA solution in HBSS and incubated for 1 h in the dark at 37°C. Finally, cells were washed three times with HBSS and the fluorescence was measured using 495 excitation and 527 emission in fluorescence microplate reader (Cytation 3, Winooski, VT, United States). IC50 index values were determined by GraphPad Prism version 5.00 for Windows (GraphPad Software, La Jolla, CA, United States).
# HepG2 cells [3] = assay: Hepatotoxicity, XTT viability after 72 h; assay type: cell-based; settings: Homo sapiens, read-out: Hepatotoxicity IC50, 5.5 mM glucose
# Description: Then, the cell viability (XTT assay) and reactive oxygen species (ROS) induction were evaluated.
# as §1
# (§2) HepG2 cells (ATCC®, United Kingdom) were grown in complete Minimal Essential Medium (EMEM) (5.5 mM glucose) medium, supplemented with 10% (v/v) fetal calf serum, 200 μg/mL of streptomycin, 200 U/mL of penicillin G and 4 mM glutamine. They were cultured under a humidified atmosphere containing 5% CO2 at 37°C.
# (§3) The cytotoxicity of the tested compounds was assessed with use of XTT cell proliferation kit II (Roche Diagnostics GmbH, Mannheim, Germany) according to the manufacturer’s instructions. Briefly HepG2 cells were seeded in a 96-well plate at a density of 22,000 cells per well. After 24 h, the tested neurosteroids in a concentration range from 0.5 to 200 μM were added to the culture media and incubated for 72 h before the XTT dye was added. Mitochondrial toxicity was assessed in HepG2 cells using glucose and galactose conditioned media and XTT assay as a read out for cell viability. In brief, cells were seeded onto 96 well, clear bottom tissue culture plates at a density of 22,000 cells/well and left overnight to attach. Six hours prior to the neurosteroids treatment the media was replaced with 100 μL DMEM media containing either glucose (25 mM glucose; 1 mM pyruvate; 2 mM glutamine, 10% FBS) or galactose (10 mM galactose, 1 mM pyruvate, 6 mM glutamine, 10% FBS). After that, the tested neurosteroids in a concentration range from 0.5 to 200 μM were added in the fresh appropriate assay medium (glucose or galactose) and incubated for 24 h before the XTT dye was added. The XTT absorbance was recorded at 495 nm after 1 h incubation with the dye. Compounds were dissolved in DMSO to produce the stock solutions at the concentration of 10 mM, with exception of PAG, 1, 6 (5 mM), and 11 (2.5 mM). Results were expressed as percentages of change in viability compared to appropriate DMSO control. IC50 values were determined by GraphPad Prism version 5.00 for Windows (GraphPad Software, La Jolla, CA, United States). All experiments were done in triplicates in three independent experiments to check the reproducibility.
# [4] = Plasma stability, human plasma; assay type: in vitro ADME
# Description: Then, 37.8 μL of stock solution was added to 1400 μL of human plasma, maintained at 37°C. Aliquots (50 μL) withdrawn at 0, 1, 4, 8, and 24 h were analyzed by HPLC. […] The supernatant was transferred to an autosampler vial and 1 μL was injected onto LC-MS system. The samples were analyzed with an Agilent 1260 HPLC (Agilent Technologies) coupled to ESI-TOF Agilent 6530 (Agilent Technologies) with Agilent Jet Stream Technology. Samples were separated on a Waters ACQUITY UPLC CSH Phenyl-Hexyl (100 × 2.1, 130 Å, 1.7 μm) at a flow rate 0.3 ml/min. […] The mass spectrometry instrument was operated in a negative ion mode with a voltage of +3.00 kV applied to the capillary. The temperature, the flow rate of the nitrogen drying gas, the pressure of the nitrogen nebulizing gas, and the flow rate of the sheath gas were set at 325°C, 10 l/min, 40 psi, 390°C, and 11 l/min, respectively. Results are represented as a percentage of a compound remaining in spiked human plasma.
# HepG2 cells [5] = assay: Mitotoxicity, XTT viability in glucose vs galactose medium; settings: for IC50: Homo sapiens, HepG2, 24 h; for Glu/Gal index (fold change): 24 h, HepG2, index higher than 3 indicates potential mitochondrial toxicity
# Description: as §1, §2, §3
# GluN1/GluN2B receptors [6] = molecular target: T1, GluN1/GluN2B receptors (Rattus norvegicus, UniProt P35439+Q00960); assay: Patch-clamp inhibition of glutamate responses of GluN1/GluN2B receptors in transfected HEK293 cells; assay type: cell-based
# T1 construct: expressed in transfected cells; host or cells: HEK293
# T1 sequence (Q00960 27-1482, other chains not shown): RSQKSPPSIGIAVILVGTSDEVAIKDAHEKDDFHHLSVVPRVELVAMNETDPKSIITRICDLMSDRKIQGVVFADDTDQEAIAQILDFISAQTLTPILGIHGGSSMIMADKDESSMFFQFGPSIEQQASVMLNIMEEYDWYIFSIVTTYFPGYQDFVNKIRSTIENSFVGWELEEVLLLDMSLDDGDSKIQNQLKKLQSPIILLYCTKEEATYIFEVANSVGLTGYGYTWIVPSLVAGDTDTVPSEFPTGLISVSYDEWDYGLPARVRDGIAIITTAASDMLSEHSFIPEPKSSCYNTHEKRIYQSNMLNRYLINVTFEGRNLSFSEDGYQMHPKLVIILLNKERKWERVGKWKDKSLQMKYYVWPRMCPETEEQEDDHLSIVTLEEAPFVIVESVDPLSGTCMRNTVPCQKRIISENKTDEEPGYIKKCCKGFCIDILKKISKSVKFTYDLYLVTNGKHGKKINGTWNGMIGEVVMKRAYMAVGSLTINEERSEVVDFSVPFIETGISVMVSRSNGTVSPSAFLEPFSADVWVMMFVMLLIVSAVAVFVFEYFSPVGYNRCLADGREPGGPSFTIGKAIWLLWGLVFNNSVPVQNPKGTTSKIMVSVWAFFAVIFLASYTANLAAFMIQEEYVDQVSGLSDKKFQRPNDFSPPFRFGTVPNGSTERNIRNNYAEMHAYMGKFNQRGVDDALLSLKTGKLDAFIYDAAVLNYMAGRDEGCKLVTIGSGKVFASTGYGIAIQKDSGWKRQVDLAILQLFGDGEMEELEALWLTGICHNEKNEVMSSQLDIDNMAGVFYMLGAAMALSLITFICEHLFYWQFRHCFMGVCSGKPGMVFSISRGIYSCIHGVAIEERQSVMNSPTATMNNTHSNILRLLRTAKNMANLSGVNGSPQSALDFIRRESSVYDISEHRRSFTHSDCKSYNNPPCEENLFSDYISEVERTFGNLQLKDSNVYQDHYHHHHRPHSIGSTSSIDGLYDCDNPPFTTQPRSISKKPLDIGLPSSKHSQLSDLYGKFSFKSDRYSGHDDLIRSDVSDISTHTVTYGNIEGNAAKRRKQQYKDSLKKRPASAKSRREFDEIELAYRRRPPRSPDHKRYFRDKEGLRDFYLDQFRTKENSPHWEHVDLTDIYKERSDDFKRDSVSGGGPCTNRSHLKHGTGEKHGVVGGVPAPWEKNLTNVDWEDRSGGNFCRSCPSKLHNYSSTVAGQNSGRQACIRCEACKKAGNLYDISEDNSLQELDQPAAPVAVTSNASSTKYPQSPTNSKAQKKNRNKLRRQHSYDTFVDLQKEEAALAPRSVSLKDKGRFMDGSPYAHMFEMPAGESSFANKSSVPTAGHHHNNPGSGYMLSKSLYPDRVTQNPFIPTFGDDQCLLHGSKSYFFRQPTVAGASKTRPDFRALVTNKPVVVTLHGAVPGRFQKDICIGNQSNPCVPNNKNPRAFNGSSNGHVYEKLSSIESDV
# [7] = parameters: method as in Rambousek et al., 2011; settings: ref Rambousek et al., 2011, cited from earlier work
# [8] = parameters: method as in Rambousek et al., 2011; settings: after bilateral NMDA-induced lesions to the hippocampus; ref Rambousek et al., 2011; cited from earlier work
# [9] = parameters: method as in Holubova et al., 2014; settings: ref Holubova et al., 2014; cited from earlier work
# [10] = parameters: method as in Kleteckova et al., 2014; settings: induced by endothelin-1, immature rats; ref Kleteckova et al., 2014; cited from earlier work
# GluN1/GluN2D receptors = molecular target: T2, GluN1/GluN2D receptors (Rattus norvegicus, UniProt P35439+Q62645); parameters: method as in Petrovic et al., 2005; settings: ref Petrovic et al., 2005; cited from earlier work
# T2 construct: expressed in transfected cells; host or cells: HEK293
# GluN1/GluN2A receptors = molecular target: T3, GluN1/GluN2A receptors (Rattus norvegicus, UniProt P35439+Q00959); parameters: method as in Petrovic et al., 2005; settings: ref Petrovic et al., 2005; cited from earlier work
# T3 construct: expressed in transfected cells; host or cells: HEK293
# T3 sequence (Q00959 23-1464, other chains not shown): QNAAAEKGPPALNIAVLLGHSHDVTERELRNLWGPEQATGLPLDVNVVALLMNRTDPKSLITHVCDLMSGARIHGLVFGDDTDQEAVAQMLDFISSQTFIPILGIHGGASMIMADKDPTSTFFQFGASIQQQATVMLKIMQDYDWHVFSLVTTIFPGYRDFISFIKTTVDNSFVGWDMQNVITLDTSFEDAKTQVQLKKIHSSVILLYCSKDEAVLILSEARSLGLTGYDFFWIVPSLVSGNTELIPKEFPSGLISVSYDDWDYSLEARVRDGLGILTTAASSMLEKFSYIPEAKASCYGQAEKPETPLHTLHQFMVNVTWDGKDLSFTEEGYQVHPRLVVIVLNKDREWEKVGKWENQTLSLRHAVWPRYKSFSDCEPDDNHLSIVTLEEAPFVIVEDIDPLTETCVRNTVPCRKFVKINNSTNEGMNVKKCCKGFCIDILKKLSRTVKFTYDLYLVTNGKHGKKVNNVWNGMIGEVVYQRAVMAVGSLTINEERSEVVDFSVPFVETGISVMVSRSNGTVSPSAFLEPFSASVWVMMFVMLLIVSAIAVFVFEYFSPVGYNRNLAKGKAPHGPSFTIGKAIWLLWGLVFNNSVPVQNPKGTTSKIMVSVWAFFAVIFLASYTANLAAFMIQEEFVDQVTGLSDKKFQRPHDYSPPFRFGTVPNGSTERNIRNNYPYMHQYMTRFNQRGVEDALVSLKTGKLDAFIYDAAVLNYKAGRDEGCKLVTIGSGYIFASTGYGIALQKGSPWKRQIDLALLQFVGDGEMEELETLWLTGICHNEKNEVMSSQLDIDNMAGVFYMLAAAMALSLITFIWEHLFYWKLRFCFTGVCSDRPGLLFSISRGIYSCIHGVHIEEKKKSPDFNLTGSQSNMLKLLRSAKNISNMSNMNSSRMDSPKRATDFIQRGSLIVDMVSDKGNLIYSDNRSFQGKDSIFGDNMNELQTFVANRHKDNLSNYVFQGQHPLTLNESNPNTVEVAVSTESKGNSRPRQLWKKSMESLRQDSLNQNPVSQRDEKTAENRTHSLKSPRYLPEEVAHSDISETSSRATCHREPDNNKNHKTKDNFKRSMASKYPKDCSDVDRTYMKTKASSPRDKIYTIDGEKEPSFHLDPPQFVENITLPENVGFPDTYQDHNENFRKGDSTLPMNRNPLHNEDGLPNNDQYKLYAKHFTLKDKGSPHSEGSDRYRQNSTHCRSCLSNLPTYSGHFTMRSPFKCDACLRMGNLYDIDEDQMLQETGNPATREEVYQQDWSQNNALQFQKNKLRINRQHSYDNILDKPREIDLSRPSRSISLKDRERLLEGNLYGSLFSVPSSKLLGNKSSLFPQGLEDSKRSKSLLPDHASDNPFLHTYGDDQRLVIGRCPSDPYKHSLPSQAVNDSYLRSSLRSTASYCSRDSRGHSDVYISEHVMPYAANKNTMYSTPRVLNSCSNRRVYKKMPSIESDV
# GluN1/GluN2B receptors [11] = molecular target: T1, GluN1/GluN2B receptors; parameters: method as in Petrovic et al., 2005; settings: ref Petrovic et al., 2005; cited from earlier work
# GluN1/GluN2C receptors = molecular target: T4, GluN1/GluN2C receptors (Rattus norvegicus, UniProt P35439+Q00961); parameters: method as in Petrovic et al., 2005; settings: ref Petrovic et al., 2005; cited from earlier work
# T4 construct: expressed in transfected cells; host or cells: HEK293
# T4 sequence (Q00961 20-1237, other chains not shown): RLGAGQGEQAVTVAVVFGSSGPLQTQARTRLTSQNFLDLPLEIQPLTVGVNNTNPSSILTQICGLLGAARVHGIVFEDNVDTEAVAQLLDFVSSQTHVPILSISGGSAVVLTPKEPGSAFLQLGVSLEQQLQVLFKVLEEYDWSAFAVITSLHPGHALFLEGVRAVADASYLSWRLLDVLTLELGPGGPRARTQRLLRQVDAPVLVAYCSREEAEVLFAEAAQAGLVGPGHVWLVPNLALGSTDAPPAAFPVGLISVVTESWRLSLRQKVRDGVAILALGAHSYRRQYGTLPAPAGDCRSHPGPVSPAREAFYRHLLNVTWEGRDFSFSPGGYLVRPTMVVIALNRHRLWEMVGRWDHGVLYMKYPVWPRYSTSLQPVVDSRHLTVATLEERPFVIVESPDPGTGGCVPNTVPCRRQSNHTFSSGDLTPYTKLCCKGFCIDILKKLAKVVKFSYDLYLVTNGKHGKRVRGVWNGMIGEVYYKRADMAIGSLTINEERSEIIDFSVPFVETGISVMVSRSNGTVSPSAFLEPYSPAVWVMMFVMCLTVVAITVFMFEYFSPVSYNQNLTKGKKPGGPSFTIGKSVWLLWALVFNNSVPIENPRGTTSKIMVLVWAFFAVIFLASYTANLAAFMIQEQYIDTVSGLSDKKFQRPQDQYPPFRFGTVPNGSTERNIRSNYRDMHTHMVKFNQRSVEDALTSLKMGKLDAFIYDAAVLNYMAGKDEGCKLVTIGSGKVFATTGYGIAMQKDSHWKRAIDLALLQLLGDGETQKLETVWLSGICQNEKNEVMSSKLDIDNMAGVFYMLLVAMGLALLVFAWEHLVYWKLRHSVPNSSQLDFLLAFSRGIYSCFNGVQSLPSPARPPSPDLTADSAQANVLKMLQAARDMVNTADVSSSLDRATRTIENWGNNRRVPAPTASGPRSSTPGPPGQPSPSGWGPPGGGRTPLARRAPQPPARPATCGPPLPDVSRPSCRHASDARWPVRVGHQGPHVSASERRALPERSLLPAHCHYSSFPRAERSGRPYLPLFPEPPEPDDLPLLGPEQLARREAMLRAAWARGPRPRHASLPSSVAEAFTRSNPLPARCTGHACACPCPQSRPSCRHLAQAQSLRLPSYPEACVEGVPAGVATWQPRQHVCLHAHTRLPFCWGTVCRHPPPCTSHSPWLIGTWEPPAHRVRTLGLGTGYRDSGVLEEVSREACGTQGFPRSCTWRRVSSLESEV
# [12] = Homo sapiens, HepG2, 72 h; read-out: ROS induction EC50
# [13] = read-out: Mitotoxicity IC50, 10 mM galactose
# [14] = read-out: Mitotoxicity IC50, 25 mM glucose
# [15] = as repeated in Table 2, read-out: IC50
# [16] = current responses to glutamate, HEK293, IC50 from single steroid dose, Hill coefficient fixed at 1.2, read-out: IC50 ± SD
# [17] = Homo sapiens, HepG2, 72 h, read-out: ROS induction EC50
Compound,"remaining at 8 h, 42.1 μg/mL ([1]; rat, plasma) [%]",melting point [°C],EC50 (HepG2 cells [2]; [12]) [µM],"IC50 (HepG2 cells [3]; 72 h, HepG2, 5.5 mM glucose) [µM]","remaining at 8 h, 42.1 μg/mL ([4]; human, plasma) [%]",IC50 (HepG2 cells [5]; [13]) [µM],IC50 (HepG2 cells [5]; [14]) [µM],ΔGexp (GluN1/GluN2B receptors [6]) [kcal/mol],IC50 (GluN1/GluN2B receptors [6]; [15]) [µM],IC50 (GluN1/GluN2B receptors [6]; [16]) [µM],Glu/Gal index (fold change) (HepG2 cells [5]),EC50 (HepG2 cells [2]; [17]) [µM],"IC50 (HepG2 cells [3]; HepG2, 72 h) [µM]",IC50 (GluN1/GluN2B receptors [6]) [µM],other results
"C[C@@]12CCC[C@H]1[C@@H]1CC[C@@H]3C[C@H](NC(=O)C[C@H](N)C(=O)O)CC[C@]3(C)[C@H]1CC2 [Compound 10, (S)-2-amino-4-(((3R,5R,8S,9S,10S,13S,14S)-10,13-dimethylhexadecahydro-1H-cyclopenta[a]phenanthren-3-yl)amino)-4-oxobutanoic acid]",100,188 to 190,> 200,> 200,100,> 200,> 200,-7.27,4.9,4.9 ± 1.7,,,,,
"CC(C)(C)OC(=O)N[C@H](CCC(=O)N[C@@H]1CC[C@@]2(C)[C@H](CC[C@H]3[C@@H]4CCC[C@@]4(C)CC[C@@H]32)C1)C(=O)O [Compound 11, (R)-2-((tert-butoxycarbonyl)amino)-5-(((3R,5R,8S,9S,10S,13S,14S)-10,13-dimethylhexadecahydro-1H-cyclopenta[a]phenanthren-3-yl)amino)-5-oxopentanoic acid]",100,125 to 128,103 ± 8,91 ± 5,100,193 ± 17,193 ± 13,-7.49,3.4,3.4 ± 0.1,1,,,,
"CC(=O)C1CCC2C3CCC4CC(OC(=O)C(N)CCC(=O)O)CCC4(C)C3CCC12C (centres unmarked) [PAG, pregnanolone glutamate, reference compound]",,,,,,58 ± 7,115 ± 13,,,,1.97,80 ± 11,62 ± 9,51.7 ± 8.6,"remaining at 8 h, 42.1 μg/mL ([1]; rat plasma, 8 h, 37°C, read-out: Plasma stability (% remaining after 8 h), Rat): 82%; excitotoxic damage of brain tissue and subsequent behavioral impairment ([7]; rats): reduced excitotoxic damage of brain tissue and subsequent behavioral impairment; psychotomimetic symptoms (hyperlocomotion, sensorimotor gating deficit) [7]: does not induce psychotomimetic symptoms; behavioral performance in active allothetic place avoidance tasks (AAPA) [8]: improved behavioral performance; neuronal damage in the dentate gyrus and subiculum [8]: significantly ameliorated neuronal damage; behaviour in elevated plus maze (EPM) and forced swimming models [9]: anxiolytic-like and antidepressant-like properties; remaining at 8 h, 42.1 μg/mL ([4]; human plasma, 8 h, 37°C, read-out: Plasma stability (% remaining after 8 h), Human): 94%; effect in focal cerebral ischemia model [10]: neuroprotective effect"
"CC(=O)[C@H]1CC[C@H]2[C@@H]3CC[C@@H]4C[C@H](OS(=O)(=O)O)CC[C@]4(C)[C@H]3CC[C@]12C [PAS, 20-oxo-5β-pregnan-3α-yl sulfate, reference compound]",,,,,,> 200,> 200,,,,,> 200,> 200,24.6 ± 5.3,IC50 (GluN1/GluN2D receptors): 30.1 µM; IC50 (GluN1/GluN2A receptors): 50 µM; IC50 (GluN1/GluN2B receptors [11]): 44.4 µM; IC50 (GluN1/GluN2C receptors): 25.6 µM
